Source: US5332759A, “Naphthalene amides and sulphonamides, processes for their preparation and pharmaceutical compositions containing them” (Adir et Compagnie, priority 1992, dated 1994)

Columns and labels:
[1] = system: sections of the saphenous vein; test: Effect on sections of the saphenous vein; design: species or system dogs; settings: same doses as in the basilar artery test
[2] = system: annular sections of the basilar artery of dogs; test: In vitro vasoconstrictive activity in the basilar artery of dogs; settings: dog basilar artery, endothelium removed
Experimental: Experiments are carried out on annular sections of the basilar artery of dogs from which the endothelium has been removed and which are placed in an organ chamber enabling the measurement of isometric contractions in the presence or absence of ketanserin.

[3] = system: annular sections of the coronary artery; test: Effect on annular sections of the coronary artery; design: species or system dogs; settings: same doses as in the basilar artery test

EC50 ([2]; isometric contractions, read-out: EC50, contraction of basilar artery sections) [nM] | SMILES | effect on sections of the saphenous vein [1] | effect on annular sections of the coronary artery [3] | induction of contractions in arterial sections [2]
~1000 | CNS(=O)(=O)Cc1ccc2cccc(CCN(C)C)c2c1 [Example 1, 2-{1-[2-(Dimethylamino)ethyl]naphth-7-yl}-N-methyl-methanesulphonamide] | does not show any significant effect | does not show any significant effect | 
 | NCCc1c[nH]c2ccc(O)cc12 [serotonin, reference compound] |  |  | capable of inducing contractions
